Patent US9643917B2, “Water-soluble propofol derivatives and uses thereof” (JIANGSU NHWALUOKANG PHARMCEUTICAL RESEARCH AND DEVELOPMENT …, priority 2014, dated 2017)
Counter-ions that a name gives are not always drawn. Like-named read-outs stand apart in the source and are kept apart here.

What was measured:
[1] = rat plasma, 37° C., HPLC
Experimental: (§1) 0.1 ml samples were taken from each of the solutions, added respectively to 1 ml of blood plasma of rabbit (taken from New Zealand white rabbits, treated according to conventional methods, anticoagulated with heparin) or 1 ml of blood plasma of rat (taken from live SD rats, processed according to conventional methods, anti coagulated with heparin), homogeneously mixed, and placed in a thermostatic water bath at 37° C. for incubation with time being recorded. Samples were taken at different time points after the experiment began, and 2 ml of acetonitrile was immediately added. The samples were shaken and centrifuged for 5 min (15,000 rpm), and the supernatant was then taken for HPLC analysis.

[2] = rabbit plasma, 37° C., HPLC
Experimental: as §1

physchem = conditions: physiological saline, saline or isotonic

Compound: CC(C)c1cccc(C(C)C)c1OC(=O)C(F)CCN(C)C (racemic) [E1, Propofol 4-(N,N-dimethyl)amino-2-(R,S)-fluorobutyrate hydrochloride]
- Dissociation percent 5 s ([1]; 5 s): 75.1%
- Dissociation percent 15 s ([1]; 15 s): 83.2%
- Dissociation percent 30 s ([1]; 30 s): 96.7%
- Dissociation percent 15 s ([2]; 15 s): 67.5%
- Dissociation percent 30 s ([2]; 30 s): 85.5%
- solubility (physchem): > 20 mg/mL
